Values belong to the compound of their own block, whether it stands above or below them.
Columns and labels:
[1] = biological target: T1, UCHL1 (Homo sapiens, UniProt P09936); experiment: Gel-based competition assay with probe 8RK59, UCHL1 band; type: biochemical; details: compound 2 μM, 1 h; PARK7 and UCHL1 1 μM each; then 8RK59 2 μM 30 min; Figure 3B
T1 sequence (P09936 1-223): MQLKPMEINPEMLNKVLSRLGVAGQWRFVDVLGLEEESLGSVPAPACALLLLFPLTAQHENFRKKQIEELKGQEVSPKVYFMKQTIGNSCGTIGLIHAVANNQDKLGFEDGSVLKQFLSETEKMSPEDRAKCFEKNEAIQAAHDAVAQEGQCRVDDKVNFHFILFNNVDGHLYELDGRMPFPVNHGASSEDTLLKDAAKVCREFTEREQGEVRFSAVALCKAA
Procedure: (§1) To assess the inhibitory potency and selectivity of these compounds toward PARK7 and UCHL1, we performed a gel-based competition assay (Figure 3A).[36] A mixture of equal amounts of PARK7 and UCHL1 (1 μM) was treated with each of the synthesized compounds (2 μM) for 1 h, followed by incubation with fluorescent probe 8RK59 (2 μM) for 30 min. Samples were resolved by SDS-PAGE, and the gel was scanned for fluorescence. Inhibition of PARK7 or UCHL1 is reflected by the disappearance of their corresponding bands (Figure 3B). […] The inhibition potential of JYQ-88 against PARK7 was assessed in a similar assay where PARK7 was incubated with a serial dilution of JYQ-88 before treatment with probe 8RK59 (Figure 3C). A clear inhibition is visible at 0.5 μM, and full inhibition is achieved between 1 and 2 μM. […] The selectivity of JYQ-88 between UCHL1 and PARK7 was further confirmed in a direct competition assay between equal amounts of PARK7 and UCHL1 (Figure 3F). PARK7 inhibition was observed starting from 0.5 μM JYQ-88, whereas inhibition of UCHL1 was only detected at 20 μM. Since JYQ-88 and 8RK64 are enantiomers, we assumed that the interactions with PARK7 should be similar. To investigate how the chiral center influences the selectivity, we solved the crystal structure of the PARK7−JYQ-88 complex with 1.42 Å resolution (Figure 3G, Table S1, PDB 7PA3). The global positioning of the inhibitor in between the two α-helices was similar to that for 8RK64. […] This way, the thiazolo-pyridine part of JYQ-88 is bound in a similar manner as 8RK64 and the earlier observed interactions are largely the same. The formation of the isothiourea moiety, stabilized by the interaction with Glu18, and the interaction between the thiazole amine and the amide NH2 of the Asn76 side chain are still present. However, the interaction between the azidoacetyl carbonyl with the Leu128 backbone carbonyl can no longer be observed due to the rotation of the azidoacetyl moiety. The Lys132 residue also seems to have rotated (compared to Figure 2C).
(§2) The assay was performed in Tris buffer as described above.

[2] = biological target: T2, PARK7 (Homo sapiens, UniProt Q99497); experiment: FP assay with Rhodamine110 probe JYQ-107 (IC50 and hit validation); type: binding; design: GST (N, cleaved yes); made in house; host or cells: E. coli BL21(DE3) Rosetta2; details: for inhibition at 12.5 µM: read-out: FP assay %Inhibiton (12.5 µM); for inhibition at 37.5 µM: read-out: FP assay %Inhibiton (37.5 µM); for inhibition at 100 µM: read-out: FP assay %Inhibiton (100 µM)
T2 sequence (Q99497 1-189): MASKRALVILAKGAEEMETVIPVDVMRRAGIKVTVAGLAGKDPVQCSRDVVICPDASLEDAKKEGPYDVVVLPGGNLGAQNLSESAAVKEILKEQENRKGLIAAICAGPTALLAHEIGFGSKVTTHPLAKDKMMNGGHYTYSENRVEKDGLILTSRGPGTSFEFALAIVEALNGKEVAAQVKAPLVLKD
Procedure: The assay was performed using the conditions as described above with a reaction volume of 20 μL per well in triplicate. Stock solutions of JYQ-88 of 1 and 0.1 mM were prepared. […] The FP signal was monitored with a BMG Labtech PHERAstar plate reader (λex/em 480/520 nm) for 2 h.
The validation was performed using the conditions as described above with a reaction volume of 20 μL per well in triplicate. […] The FP signal was monitored with a BMG Labtech PHERAstar plate reader (λex/em 480/520 nm) for 2 h. The relative loss of FP signal compared with reference controls was used to calculate the remaining enzyme activity. Inhibition percentage of these 40 compounds was plotted as a heatmap using GraphPad Prism 9.0.1 software. Color gradients indicate inhibition percentage, no inhibiton (white) and full inhibition (blue).

[3] = biological target: T2, PARK7; experiment: Gel-based competition assay with probe 8RK59, PARK7 band; type: biochemical; design: GST (N, cleaved yes); made in house; host or cells: E. coli BL21(DE3) Rosetta2; details: compound 2 μM, 1 h; PARK7 and UCHL1 1 μM each; then 8RK59 2 μM 30 min; Figure 3B
Procedure: as §1, §2

[4] = biological target: T2, PARK7; experiment: DiFMUAc PARK7 activity assay; type: biochemical; design: GST (N, cleaved yes); made in house; host or cells: E. coli BL21(DE3) Rosetta2; details: for inhibition at 12.5 µM: read-out: DiFMuAc assay %Inhibiton (12.5 µM); for inhibition at 37.5 µM: read-out: DiFMuAc assay %Inhibiton (37.5 µM); for inhibition at 100 µM: read-out: DiFMuAc assay %Inhibiton (100 µM)
Procedure: Compounds were transferred using a Labcyte Echo550 acoustic dispenser to obtain a 12-point serial dilution of 0.001 to 100 μM. Next, PARK7 (15 μL, final concentration of 0.1 μM) was dispensed with a Biotek MultiFlowFX liquid dispenser and incubated for 1 h, followed by dispensing the substrate DiFMUAc (5 μL, final concentration of 300 μM). The fluorescence intensity (FI) signal was monitored with a BMG Labtech PHERAstar plate reader (λex/em 350/450 nm) for 1 h.
The validation was performed in the PBS buffer with a reaction volume of 20 μL per well in triplicate. […] Next, PARK7 (15 μL, final concentration 0.1 μM) was dispensed with a Biotek MultiFlowFX liquid dispenser and incubated for 2 h, followed by dispensing the substrate DiFMUAc (5 μL, final concentration 300 μM). The FI signal was monitored with a BMG Labtech PHERAstar plate reader (λex/em 350/450 nm) for 1 h. The increase of FI signal compared with reference controls was used to calculate the remaining enzyme activity. The inhibition percentage of these 22 compounds was plotted as a heatmap using GraphPad Prism 9.0.1 software. Color gradients indicate inhibition percentage, no inhibiton (white) and full inhibition (blue).

[5] = 12.5 µM compound, PARK7 0.2 μM, 1 h preincubation, JYQ-107 20 nM
[6] = 37.5 µM compound, PARK7 0.2 μM, 1 h preincubation, JYQ-107 20 nM
[7] = 100 µM compound, PARK7 0.2 μM, 1 h preincubation, JYQ-107 20 nM
[8] = 12.5 µM compound, PARK7 0.1 μM, 2 h preincubation, DiFMUAc 300 μM
[9] = 37.5 µM compound, PARK7 0.1 μM, 2 h preincubation, DiFMUAc 300 μM
[10] = 100 µM compound, PARK7 0.1 μM, 2 h preincubation, DiFMUAc 300 μM

Compound: CCn1ncnc1NS(=O)(=O)c1cccc(S(=O)(=O)F)c1 [Z2509462762]
inhibition at 12.5 µM [2]: 100% | inhibition at 37.5 µM [2]: 100% | inhibition at 100 µM [2]: 100% | inhibition at 12.5 µM [4]: 100% | inhibition at 37.5 µM [4]: 100% | inhibition at 100 µM [4]: 100%

Compound: O=C(CCl)c1ccc(F)c(C(=O)CCl)c1 [Z2768504793]
inhibition at 12.5 µM [2, 5]: 100% | inhibition at 37.5 µM [2, 6]: 100% | inhibition at 100 µM [2, 7]: 100% | inhibition at 12.5 µM [4, 8]: 98% | inhibition at 37.5 µM [4, 9]: 98.5% | inhibition at 100 µM [4, 10]: 95.9%

Compound: O=[N+]([O-])c1ccccc1S(=O)(=O)F [Z3223579620]
FP assay %Inhibiton (12.5 µM) [2, 5]: 100.0% | FP assay %Inhibiton (37.5 µM) [2, 6]: 100.0% | FP assay %Inhibiton (100 µM) [2, 7]: 100.0% | DiFMuAc assay %Inhibiton (12.5 µM) [4, 8]: 99.2% | DiFMuAc assay %Inhibiton (37.5 µM) [4, 9]: 98.3% | DiFMuAc assay %Inhibiton (100 µM) [4, 10]: 98.2%

Compound: Cc1ccc(C(=O)O)cc1S(=O)(=O)F [Z3242849759]
FP assay %Inhibiton (12.5 µM) [2, 5]: 100.0% | FP assay %Inhibiton (37.5 µM) [2, 6]: 100.0% | FP assay %Inhibiton (100 µM) [2, 7]: 100.0% | DiFMuAc assay %Inhibiton (12.5 µM) [4, 8]: 93.6% | DiFMuAc assay %Inhibiton (37.5 µM) [4, 9]: 95.8% | DiFMuAc assay %Inhibiton (100 µM) [4, 10]: 93.1%

Compound: O=[N+]([O-])c1cccc(S(=O)(=O)F)c1 [Z3243697698]
FP assay %Inhibiton (12.5 µM) [2, 5]: 100.0% | FP assay %Inhibiton (37.5 µM) [2, 6]: 100.0% | FP assay %Inhibiton (100 µM) [2, 7]: 100.0% | DiFMuAc assay %Inhibiton (12.5 µM) [4, 8]: 100.0% | DiFMuAc assay %Inhibiton (37.5 µM) [4, 9]: 100.0% | DiFMuAc assay %Inhibiton (100 µM) [4, 10]: 100.0%

Continued, values first:

Inhibition of UCHL1 (disappearance of 8RK59-labeled band) [1]: hardly show any inhibition | Inhibition of PARK7 in FP assay ([2]; increasing concentrations, 60 min preincubation, Figure S7): no inhibition | Inhibition of PARK7 (disappearance of 8RK59-labeled band) [3]: hardly show any inhibition
Compound: N#CN1CC[C@H](C(=O)Nc2nc3c(s2)CN(C(=O)c2cn(CC4CCCO4)nn2)CC3)C1 (stereo partly drawn) [JYQ-55, (3S)-1-Cyano-N-(5-(1-((tetrahydrofuran-2-yl)methyl)-1H-1,2,3-triazole-4-carbonyl)-4,5,6,7-tetrahydrothiazolo[5,4-c]pyridin-2-yl)pyrrolidine-3-carboxamide]

Inhibition of UCHL1 (disappearance of 8RK59-labeled band) [1]: fully inhibit | Inhibition of PARK7 (disappearance of 8RK59-labeled band) [3]: less efficiently
Compound: N#CN1CC[C@H](C(=O)Nc2nc3c(s2)CN(C(=O)Cc2ccncc2)CC3)C1 [JYQ-76, (S)-1-Cyano-N-(5-(2-(pyridin-4-yl)acetyl)-4,5,6,7-tetrahydrothiazolo[5,4-c]pyridin-2-yl)pyrrolidine-3-carboxamide]

Inhibition of UCHL1 (disappearance of 8RK59-labeled band) [1]: hardly show any inhibition | Inhibition of PARK7 (disappearance of 8RK59-labeled band) [3]: hardly show any inhibition
Compound: N#CN1CC[C@H](C(=O)Nc2nc3c(s2)CN(C(=O)c2ccc(Br)cc2)CC3)C1 [JYQ-77, (S)-N-(5-(4-Bromobenzoyl)-4,5,6,7-tetrahydrothiazolo[5,4-c]pyridin-2-yl)-1-cyanopyrrolidine-3-carboxamide]

Inhibition of UCHL1 (disappearance of 8RK59-labeled band) [1]: fully inhibit | Inhibition of PARK7 (disappearance of 8RK59-labeled band) [3]: less efficiently
Compound: N#CN1CC[C@H](C(=O)Nc2nc3c(s2)CN(C(=O)CCCCBr)CC3)C1 [JYQ-78, (S)-N-(5-(5-Bromopentanoyl)-4,5,6,7-tetrahydrothiazolo[5,4-c]pyridin-2-yl)-1-cyanopyrrolidine-3-carboxamide]

Inhibition of UCHL1 (disappearance of 8RK59-labeled band) [1]: fully inhibit | Inhibition of PARK7 (disappearance of 8RK59-labeled band) [3]: less efficiently
Compound: CN1C(=O)CC(C(=O)N2CCc3nc(NC(=O)[C@H]4CCN(C#N)C4)sc3C2)[C@@H]1c1cccnc1 (stereo partly drawn) [JYQ-79, (3S)-1-Cyano-N-(5-((2R)-1-methyl-5-oxo-2-(pyridin-3-yl)pyrrolidine-3-carbonyl)-4,5,6,7-tetrahydrothiazolo[5,4-c]pyridin-2-yl)pyrrolidine-3-carboxamide]

Inhibition of UCHL1 (disappearance of 8RK59-labeled band) [1]: hardly show any inhibition | Inhibition of PARK7 (disappearance of 8RK59-labeled band) [3]: hardly show any inhibition
Compound: (3S)-N-(5-((1S,2R,5R)-Adamantane-2-carbonyl)-4,5,6,7-tetrahydrothiazolo[5,4-c]pyridin-2-yl)-1-cyanopyrrolidine-3-carboxamide [JYQ-83]
